According to US20200360426A1, “PROTOCOL AND COMPOSITION FOR SUPPRESSION OF ALLERGIC RESPONSES” (priority 2019, published 2020):

System: apheresis patients (allergic reaction to dextran sulfate)
Description: The protocol begins with the oral administration of an antacid and a histamine blocker. […] The histamine blocker can be selected from a number of commercial alternatives. These include, specifically, H-1 blockers, such as loratadine, fexofenadine and azelastine.
Centrally important and essential is the administration of magnesium, preferably magnesium IV, available as magnesium sulfate. Administration of magnesium sulfate, shortly in advance of apheresis, serves to relax the vascular system, and shift the patient or a sympathetic response to a parasympathetic vascular relaxation response. Magnesium realizes and calms the sympathetic FFF response, the survival instinct that is so prevalent in angioedema. […] While it can be infused over a longer period of more than one hour, a preferred protocol infuses it very rapidly. […] A drip in 100 ml-250 ml normal physiologic saline solution (Ns) or lactated Ringers solution (LR) has been employed. Other carriers, such as dextrose in water (5%) (D5W) or sterile water at smaller volumes, or similar physiologically compatible carriers may be used. A faster drip of not more than 30 minutes is preferable, and may be essential to intervene in and reduce ongoing severe reactions.
When the apheresis is done, dextran sulfate exposure can still cause a reaction. […] Apheresis patients also get oxygen via canula, 2-4 liters a minute through the procedure. […]

O=S(=O)([O-])[O-].[Mg+2] [magnesium sulfate]
allergic reactions observed during dextran sulfate apheresis (full protocol: ACE inhibitors stopped at least a week before, antacid and H-1 histamine blocker, magnesium sulfate IV no more than an hour before apheresis, at least 60 apheresis treatments, at least thirty patients): no issues and little or no allergic reactions were observed
tolerance of Liposorber apheresis treatment (seven patients with previous anaphylactoid shock reaction to Liposorber even with IV steroids, magnesium sulfate without any supportive or additional treatments): allowed all 7 patients to tolerate the treatment
